Biological target: T1, SAE (Homo sapiens, UniProt Q9UBT2)
T1 construct: endogenous in cells; host or cells: HCT116
T1 sequence (Q9UBT2 1-640): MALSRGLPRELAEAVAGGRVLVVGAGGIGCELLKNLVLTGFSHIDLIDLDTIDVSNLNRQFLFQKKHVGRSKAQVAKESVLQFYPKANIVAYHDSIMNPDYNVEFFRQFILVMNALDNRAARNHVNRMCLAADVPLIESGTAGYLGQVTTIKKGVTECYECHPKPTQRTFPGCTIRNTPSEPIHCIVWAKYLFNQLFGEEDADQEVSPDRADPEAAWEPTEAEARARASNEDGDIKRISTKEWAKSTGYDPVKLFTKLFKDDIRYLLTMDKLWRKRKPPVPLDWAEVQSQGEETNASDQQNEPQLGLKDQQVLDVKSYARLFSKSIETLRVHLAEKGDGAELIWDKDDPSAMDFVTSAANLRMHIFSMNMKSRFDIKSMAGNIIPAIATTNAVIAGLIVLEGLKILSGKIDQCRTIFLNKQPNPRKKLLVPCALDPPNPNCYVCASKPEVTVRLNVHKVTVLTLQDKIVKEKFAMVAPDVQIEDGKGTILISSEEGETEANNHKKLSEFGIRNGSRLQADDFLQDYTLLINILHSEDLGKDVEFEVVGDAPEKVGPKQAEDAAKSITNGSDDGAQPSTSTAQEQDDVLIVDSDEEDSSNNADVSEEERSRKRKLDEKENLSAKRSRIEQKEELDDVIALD
T1 sequence (Q9UBE0 1-346): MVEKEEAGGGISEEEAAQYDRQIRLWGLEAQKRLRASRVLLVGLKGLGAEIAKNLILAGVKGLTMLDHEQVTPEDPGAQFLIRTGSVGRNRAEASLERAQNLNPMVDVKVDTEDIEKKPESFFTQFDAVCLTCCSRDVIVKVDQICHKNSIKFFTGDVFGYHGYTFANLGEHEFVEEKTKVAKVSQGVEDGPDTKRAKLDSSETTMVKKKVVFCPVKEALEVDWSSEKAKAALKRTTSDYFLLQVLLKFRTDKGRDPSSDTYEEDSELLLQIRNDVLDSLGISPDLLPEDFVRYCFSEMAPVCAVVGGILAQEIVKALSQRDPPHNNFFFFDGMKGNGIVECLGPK
Experiment: SUMO IF: in vitro inhibitory activity assay against SAE in HCT116 cells (SUMO-2/3 immunofluorescence)
Assay type: cell-based
Settings: class symbols, 6 h at 37° C.
Description: Biological Example 1. In Vitro Inhibitory Activity Assay of Compounds of the Present Disclosure Against SAE
HCT116 cells were seeded into a 96-well black transparent bottom plate at about 20000/well with 90 μL per well. The cells were incubated at 37° C. overnight for 24 h. The test compounds were 10-fold diluted to give a final concentration, and 10 μL of the diluted compounds was added to each well of the cell culture plate. The mixture was incubated at 37° C. for 6 h. The cells were then washed gently, the culture medium was discarded, and the cells were washed once with 200 μL of 0.1% PBST. 50 μL of 4% PFA was added to each well, and the cells were immobilized at room temperature for 20 min, and then washed with PBS 2-3 times. 50 μL of 0.2% Triton X-100 was added to each well, and the cells were left to stand at room temperature for 15 min and washed with 0.1% PBST 3 times. 100 μL of 3% BSA (0.6 g BSA+20 mL PBS) was added to each well, and the mixture was blocked at 37° C. for 30 min. After the blocking was completed, the liquid was removed and a primary antibody (SUMO-2/3 (18H8) Rabbit mAb, 1:400 dilution) was prepared with 1% BSA. 30 μL of the diluted primary antibody was added to each well, and the mixture was incubated at 4° C. overnight. The cells were washed 3 times with 200 μL of 0.1% PBST. A FITC secondary antibody (Fluorescein (FITC)-conjugated Affinipure Goat Anti-Rabbit IgG (H+L), 1:300 dilution) was further prepared with 1% BSA, and 40 μL of the diluted secondary antibody was added to each well. The mixture was incubated at room temperature in the dark for 2 h, and then the cells were washed 4 times with 0.1% PBST. The fluorescence signal of the sample was detected and compared to the DMSO group, and the inhibition rate and IC50 were calculated.

`NS(=O)(=O)OC[C@H]1[C@H](F)[C@@H](Nc2ncncc2C(=O)c2cc3c(s2)CCCC32NCCc3cc(Cl)c(Cl)cc32)C[C@@H]1O` (stereo partly shown) [Compound 112] and `COc1cc2c(cc1Cl)[C@@]1(CCCc3sc(C(=O)c4cncnc4N[C@H]4C[C@H](O)[C@@H](COS(N)(=O)=O)[C@@H]4F)cc31)NCC2` [Compound 675] fall in the same range of IC50: 50 to 200 nM for the first, 50 to 200 nM for the second.

`CC1Cc2ccc(Cl)cc2[C@@]2(C=Cc3sc(C(=O)c4cncnc4N[C@H]4C[C@H](O)[C@@H](COS(N)(=O)=O)[C@@H]4F)cc32)N1` (stereo partly shown) [Compound 1058] and `CC1Cc2ccc(Cl)cc2C2(C=Cc3sc(C(=O)c4cncnc4N[C@H]4C[C@H](O)[C@@H](COS(N)(=O)=O)[C@@H]4F)cc32)N1` (stereo partly shown) [Compound 1056] fall in the same range of IC50: 50 to 200 nM for the first, 50 to 200 nM for the second.

`NS(=O)(=O)OC[C@H]1[C@H](F)[C@@H](Nc2ncncc2C(=O)c2cc3c(s2)C(F)(F)C[C@]32NCCc3ccc(F)cc32)C[C@@H]1O` [Compound 626] and `NS(=O)(=O)OC[C@H]1[C@H](F)[C@@H](Nc2ncncc2C(=O)c2cc3c(s2)CSC[C@]32NCCc3ccc(F)cc32)C[C@@H]1O` [Compound 299] cannot be ordered by IC50: 50 to 200 nM for the first, at most 50 nM for the second.

Compared with `CN1Cc2sc(C(=O)c3cncnc3N[C@H]3C[C@H](O)[C@@H](COS(N)(=O)=O)[C@@H]3F)cc2C2(C1)OCCc1ccccc12` (stereo partly shown) [Compound 717], `CCN1Cc2sc(C(=O)c3cncnc3N[C@H]3C[C@H](O)[C@@H](COS(N)(=O)=O)[C@@H]3F)cc2[C@@]2(C1)OCCc1ccc(F)cc12` [Compound 727] is higher in IC50: 50 to 200 nM for the first, over 200 nM for the second.

First: NS(=O)(=O)OC[C@H]1[C@H](F)[C@@H](Nc2ncncc2C(=O)c2cc3c(s2)C(F)=C[C@]32NCCc3ccc(F)cc32)C[C@@H]1O [Compound 620]
Second: NS(=O)(=O)OC[C@H]1[C@H](F)[C@@H](Nc2ncncc2C(=O)c2cc3c(s2)OC[C@@]32NCCc3ccc(Cl)cc32)C[C@@H]1O [Compound 146]
The IC50 of the first is lower: 50 to 200 nM for the first, over 200 nM for the second.

Going from `NS(=O)(=O)OC[C@H]1[C@H](F)[C@@H](Nc2ncncc2C(=O)c2cc3c(s2)COC[C@@]32NCCc3ccc(Cl)c(Cl)c32)C[C@@H]1O` [Compound 559] to `NS(=O)(=O)OC[C@H]1[C@H](F)[C@@H](Nc2ncncc2C(=O)c2cc3c(s2)CSCC32NCCc3ccc(Cl)cc32)C[C@@H]1O` (stereo partly shown) [Compound 300], the IC50 falls from over 200 nM to at most 50 nM. The second is the more potent here.

`Cc1sc(C(=O)c2cncnc2N[C@H]2C[C@H](O)[C@@H](COS(N)(=O)=O)[C@@H]2F)cc1C1NCCc2ccc(C3CC3)cc21` (stereo partly shown) [Compound 242] and `Cc1sc(C(=O)c2cncnc2N[C@H]2C[C@H](O)[C@@H](CCS(N)(=O)=O)[C@@H]2F)cc1[C@@H]1NCCc2ccc(Cl)cc21` [Compound 991] fall in the same range of IC50: 50 to 200 nM for the first, 50 to 200 nM for the second.

Compared with `NS(=O)(=O)OC[C@H]1[C@H](F)[C@@H](Nc2ncncc2C(=O)c2cc3c(s2)CCC32NCCc3ccc(C(F)(F)F)cc32)C[C@@H]1O` (stereo partly shown) [Compound 151], `N#Cc1ccc2c(c1)[C@]1(CCc3sc(C(=O)c4cncnc4N[C@H]4C[C@H](O)[C@@H](COS(N)(=O)=O)[C@@H]4F)cc31)NCC2` [Compound 137] is higher in IC50: 50 to 200 nM for the first, over 200 nM for the second. The first is the more potent here.

`NS(=O)(=O)OC[C@H]1[C@H](F)[C@@H](Nc2ncncc2C(=O)c2cc3c(s2)CCC[C@]32NC3(CC3)Cc3ccc(Cl)cc32)C[C@@H]1O` [Compound 684] and `[2H]C1([2H])Cc2ccc(Cl)cc2C2(CCCc3sc(C(=O)c4cncnc4N[C@H]4C[C@H](O)[C@@H](COS(N)(=O)=O)[C@@H]4F)cc32)N1` (stereo partly shown) [Compound 660] fall in the same range of IC50: 50 to 200 nM for the first, 50 to 200 nM for the second.

`COc1cc2c(cc1Cl)C1(CCc3sc(C(=O)c4cncnc4N[C@H]4C[C@H](O)[C@@H](COS(N)(=O)=O)[C@@H]4F)cc31)NCC2` (stereo partly shown) [Compound 157] and `COc1cc2c(cc1Cl)C1(CCCc3sc(C(=O)c4cncnc4N[C@H]4C[C@H](O)[C@@H](COS(N)(=O)=O)[C@@H]4F)cc31)NCC2` (stereo partly shown) [Compound 115] fall in the same range of IC50: 50 to 200 nM for the first, 50 to 200 nM for the second.

`N#Cc1ccc2c(c1)[C@@]1(C=Cc3sc(C(=O)c4cncnc4N[C@H]4C[C@H](O)[C@@H](COS(N)(=O)=O)[C@@H]4F)cc31)OCC2` [Compound 764] and `NS(=O)(=O)OC[C@H]1[C@H](F)[C@@H](Nc2ncncc2C(=O)c2cc3c(s2)C=CC32OCCc3ccccc32)C[C@@H]1O` (stereo partly shown) [Compound 753] cannot be ordered by IC50: at most 50 nM for the first, 50 to 200 nM for the second.

Compared with `NS(=O)(=O)CC[C@H]1[C@H](F)[C@@H](Nc2ncncc2C(=O)c2cc3c(s2)C=C[C@@]32NCCc3ccc(Cl)cc32)C[C@@H]1O` [Compound 639], `CC1(C)CN[C@]2(C=Cc3sc(C(=O)c4cncnc4N[C@H]4C[C@H](O)[C@@H](COS(N)(=O)=O)[C@@H]4F)cc32)c2cc(Cl)ccc21` [Compound 1061] is lower in IC50: over 200 nM for the first, 50 to 200 nM for the second.

First: CC1CNC2(C=Cc3sc(C(=O)c4cncnc4N[C@H]4C[C@H](O)[C@@H](COS(N)(=O)=O)[C@@H]4F)cc32)c2cc(Cl)ccc21 (stereo partly shown) [Compound 1053]
Second: CN1CCc2ccc(Cl)cc2[C@]12CCCc1sc(C(=O)c3cncnc3N[C@H]3C[C@H](O)[C@@H](COS(N)(=O)=O)[C@@H]3F)cc12 [Compound 595]
The IC50 of the first is lower: 50 to 200 nM for the first, over 200 nM for the second. The first is the more potent here.

Compared with `N#Cc1ccc2c(c1)[C@]1(CCCc3sc(C(=O)c4cncnc4N[C@H]4C[C@H](O)[C@@H](COS(N)(=O)=O)[C@@H]4F)cc31)NCC2` [Compound 95], `C#Cc1ccc2c(c1)[C@@]1(CCCc3sc(C(=O)c4cncnc4N[C@H]4C[C@H](O)[C@@H](COS(N)(=O)=O)[C@@H]4F)cc31)NCC2` [Compound 668] is lower in IC50: over 200 nM for the first, 50 to 200 nM for the second. The second is the more potent here.

`N#Cc1cc2c(cc1Cl)[C@@]1(CCc3sc(C(=O)c4cncnc4N[C@H]4C[C@H](O)[C@@H](COS(N)(=O)=O)[C@@H]4F)cc31)NCC2` [Compound 695] and `NS(=O)(=O)OC[C@H]1[C@H](F)[C@@H](Nc2ncncc2C(=O)c2cc3c(s2)CCC32NCCc3cc(F)c(F)cc32)C[C@@H]1O` (stereo partly shown) [Compound 152] cannot be ordered by IC50: at most 50 nM for the first, 50 to 200 nM for the second.

`NS(=O)(=O)OC[C@H]1[C@H](F)[C@@H](Nc2ncncc2C(=O)c2cc3c(s2)CCC[C@]32NCCc3ccncc32)C[C@@H]1O` [Compound 678] and `NS(=O)(=O)OC[C@H]1[C@H](F)[C@@H](Nc2ncncc2C(=O)c2cc3c(s2)CC[C@]32NCCc3ccncc32)C[C@@H]1O` [Compound 699] fall in the same range of IC50: 50 to 200 nM for the first, 50 to 200 nM for the second.

`N#Cc1ccc2c(c1)[C@]1(CCCc3sc(C(=O)c4cncnc4N[C@H]4C[C@H](O)[C@@H](COS(N)(=O)=O)[C@@H]4F)cc31)OCC2` [Compound 715] and `NS(=O)(=O)OC[C@H]1[C@H](F)[C@@H](Nc2ncncc2C(=O)c2cc3c(s2)OCC32NCCc3ccccc32)C[C@@H]1O` (stereo partly shown) [Compound 139] cannot be ordered by IC50: over 200 nM for the first, over 200 nM for the second.

With `NS(=O)(=O)OC[C@H]1[C@H](F)[C@@H](Nc2ncncc2C(=O)c2cc3c(s2)CC[C@]32NCCc3cc(F)c(Cl)c(F)c32)C[C@@H]1O` [Compound 697] the IC50 was at most 50 nM.

Same assay, conditions: numeric values, 6 h at 37° C.

First: NS(=O)(=O)OC[C@H]1[C@H](F)[C@@H](Nc2ncncc2C(=O)c2cc3c(s2)CCC[C@@]32NCCc3ccc(F)cc32)C[C@@H]1O [Compound 92]
Second: NS(=O)(=O)OC[C@H]1[C@H](F)[C@@H](Nc2ncncc2C(=O)c2cc3c(s2)CC[C@]32NCCc3ccc(F)cc32)C[C@@H]1O [Compound 135]
The IC50 of the first is higher: over 1000 nM for the first, 48.9 nM for the second.

`C#CCN1Cc2sc(C(=O)c3cncnc3N[C@H]3C[C@H](O)[C@@H](COS(N)(=O)=O)[C@@H]3F)cc2[C@]2(C1)NCCc1ccc(Cl)cc12` [Compound 659] and `NS(=O)(=O)OC[C@H]1[C@H](F)[C@@H](Nc2ncncc2C(=O)c2cc3c(s2)CN(CC(F)(F)F)C[C@]32NCCc3ccc(Cl)cc32)C[C@@H]1O` [Compound 653] are within 1.5-fold of each other in IC50: 20.3 nM for the first, 25.9 nM for the second.

For `NS(=O)(=O)OC[C@H]1[C@H](F)[C@@H](Nc2ncncc2C(=O)c2cc3c(s2)CC[C@@]32NCCc3ccccc32)C[C@@H]1O` [Compound 128], the IC50 was over 1000 nM.
